Where “and” joins values, the source holds several entries; their conditions need not be identical. Equal values may be shown once. Read-outs that look alike come from different tables or passages of the source.
Tests used:
WT virus (NL4-3) = experiment: microbe, parasite or virus in culture; format: cell-based, HIV-1; conditions: for EC50: read-out: EC50
Experimental: Evaluation of these compounds for the inhibition of HIV-1 was determined as the fifty percent cell culture inhibitory concentration (CIC50) in CEMSS cell culture with WT virus (NL4-3).
(§1) In this Example, the antiviral and cellular toxicity of NNRTIs was investigated, using the cytopathic cell killing assay described by Yang (Yang et al., "Characteristics of a Group of Non-nucleoside Reverse Transcriptase Inhibitors with Structural Diversity and Potent Anti-Human Immunodeficiency Virus Activity," Leukemia 9:S75-S85 [1995]). Briefly, in this method cells (e.g., the CEM-SS cell line, available from the NIAID AIDS Research and Reference Program [ARRRP]) were seeded at a density of 5 x 10^3 cells/well, into the wells of a 96-well microtiter plate. The cells were then infected with HIV virus (either mutant or WT), at a multiplicity of infection (MOI) previously determined to provide complete cell killing by 6 days of culture post-infection (e.g., MOI of 0.01-0.05). Each of the HIV isolates was pre-titered to induce equivalent levels of infection based on cell killing or virus production, prior to their use in these assays. A range of test compound concentrations was added to the wells in triplicate (e.g., serial half-log dilutions) to evaluate inhibition of HIV infection. Controls for each assay included drug controls (drug colorimetric control wells), drug cytotoxicity control wells (cells with drug), virus control wells (cells with virus), and cell viability controls (cells only). Positive control drugs (e.g., AZT and ddC) were also run in parallel.
(§2) After six days of incubation at 37°C, cell viability was determined spectrophotometrically at 450 nm for each well, using the metabolic reduction of XTT to a soluble colored formazan. (See, Gartner and Popovic, "Virus Isolation and Production, in Aldovini and Walker (eds.), Techniques in HIV Research, Stockton Press, NY, pp. […] [1991]; and Nara and Fischinger, "Quantitative Infectivity Assay for HIV-1 and HIV-2," Nature 332:469-470 [1988]).
(§3) The in vitro therapeutic index (TI50) was defined as the fold-difference between the EC50 and IC50. The results for the various compounds are included in Figures 8 and 19.

NL4-3 (WT) = experiment: Cytopathic cell killing assay, cross-resistance profile, infected MT-4 cells; format: cell-based, HIV-1
Excerpt: (§4) The various HIV isolates tested in the Figures are those corresponding to wild-type virus (NL4-3) and the other strains listed by their RT mutations. The three 4xAZT isolates included in the Figures represent AZT drug-resistant variants. For example, the 4xAZT/L100I isolate has five mutations: four mutations confer increased resistance to AZT, and the other mutation is located within the NNRTI binding pocket. TZB and nevir. (nevirapine) are two well-known NNRTIs, included in this experiment for comparison purposes. […]
as §1, §2, §3

HIV-1 variant Y181C = experiment: as above; format: cell-based; conditions: isolate Y181C
Excerpt: as §4, §1, §2, §3

HIV-1 variant A98G = experiment: as above; format: cell-based; conditions: Table 8; isolate A9SG; read-out: EC50
Excerpt: as §4, §1, §2, §3

HIV-1 variant K103N = experiment: as above; format: cell-based; conditions: isolate K103N
Excerpt: as §4, §1, §2, §3

HIV-1 variant L100I = experiment: as above; format: cell-based
Excerpt: as §4, §1, §2, §3

HIV-1 variant K101E = experiment: as above; format: cell-based
Excerpt: as §4, §1, §2, §3

HIV-1 variant V108I = experiment: as above; format: cell-based
Excerpt: as §4, §1, §2, §3

HIV-1 variant V106A = experiment: as above; format: cell-based; conditions: Table 8; isolate V 106A; read-out: EC50
Excerpt: as §4, §1, §2, §3

HIV-1 variant Y188C = experiment: as above; format: cell-based
Excerpt: as §4, §1, §2, §3

HIV-1 variant V179D = experiment: as above; format: cell-based; conditions: Table 8; isolate V179D; read-out: EC50
Excerpt: as §4, §1, §2, §3

HIV-1 variant L74V = experiment: as above; format: cell-based; conditions: Table 8; isolate 1.74V; read-out: EC50
Excerpt: as §4, §1, §2, §3

HIV-1 WT RT = target: T1, HIV-1 WT RT (Human immunodeficiency virus type 1 group M subtype B, UniProt P03366); experiment: biochemical; conditions: for IC50: read-out: IC50; for %inhibn (1µM) / inhibition at 1 µM: WT HIV-1 RT, 1 µM drug
T1 construct: purified RT protein (0.015 mg/mL) was incubated in a 100 µL reaction mixture

[1] = Table 7, concentration reducing cell killing or virus production by 50%, HIV-1 WT
[2] = Table 11, CEMSS/NL4-3, NRVC = reduction in viral CPE not seen (footnote)
[3] = Table 10 (values in µM), isolate NL4-3 (WT), read-out: EC50
[4] = Table 10 (values in µM), read-out: EC50
[5] = Table 10 (values in µM), isolate L1001, read-out: EC50
[6] = Human immunodeficiency virus 1, MT4, Table 9
[7] = Human immunodeficiency virus 1, MT4, Table 10 (values in µM)

1-(2,6-difluorobenzyl)-2-(2,6-difluorophenyl)-4-acetamidobenzimidazole [compound 56]
EC50 (WT virus (NL4-3); [1]): 1480 nM | EC50 (WT virus (NL4-3); [2]): 1480 nM | EC50 (NL4-3 (WT); Table 8, isolate N1.43, read-out: EC50): 1.6 µM | EC50 (NL4-3 (WT); [3]): 1.97 µM | EC50 (HIV-1 variant Y181C; [4]): > 100 µM | EC50 (HIV-1 variant A98G): 4300 nM | EC50 (HIV-1 variant K103N; Table 8, read-out: EC50): > 20 µM | EC50 (HIV-1 variant K103N; [4]): > 100 µM | EC50 (HIV-1 variant L100I; Table 8, isolate 1.1001, read-out: EC50): 2.1 µM | EC50 (HIV-1 variant L100I; [5]): 3.25 µM | EC50 (HIV-1 variant K101E; Table 8, isolate K101E, read-out: EC50): > 20 µM | EC50 (HIV-1 variant V108I; Table 8, isolate V1081, read-out: EC50): 5.3 µM | EC50 (HIV-1 variant V106A): > 20000 nM | EC50 (HIV-1 variant Y188C; Table 8, isolate Y 188C, read-out: EC50): > 10 µM | EC50 (HIV-1 variant V179D): > 10000 nM | EC50 (HIV-1 variant L74V): 1200 nM | IC50 (HIV-1 WT RT; Table 7, HIV-1 WT RT): 54700 nM | %inhibn (1µM) (HIV-1 WT RT; Table 7): 24% | IC50 (HIV-1 WT RT; Table 11, WT RT): 54700 nM

CC(C)=CCn1c(-c2c(F)cccc2F)nc2c(C)cccc21 [(X= CH3) R = prenyl, 1-(3,3-dimethylallyl)-2-(2,6-difluorophenyl)-4-methylbenzimidazole]
EC50 (NL4-3 (WT); Human immunodeficiency virus 1, NL43, MT4, Table 9, isolate NL4.3): 1.3 µM | EC50 (HIV-1 variant Y181C; [6]): > 20 µM | EC50 (HIV-1 variant K103N; [6]): > 20 µM | EC50 (HIV-1 variant L100I; Human immunodeficiency virus 1, MT4, Table 9, isolate L1001): 0.3 µM | EC50 (HIV-1 variant K101E; Human immunodeficiency virus 1, MT4, Table 9, isolate KIOIE): > 20 µM | EC50 (HIV-1 variant V108I; Human immunodeficiency virus 1, MT4, Table 9, isolate V1081): > 20 µM

Cc1cccc2c1nc(C(C)C)n2Cc1c(F)cccc1F [compound 34, 1-(2,6-difluorobenzyl)-2-isopropyl-4-methylbenzimidazole]
cytotoxicity and anti-viral effect (summary graph) (WT virus (NL4-3); Figures 10-12, result in words): effective therapeutic dose | inhibition at 10 µM (HIV-1 WT RT; Table 3, WT RT, 10 µM drug concentration, read-out: %inhibn (10 µM)): 53%

Fc1cccc(F)c1Cn1c(-c2c(F)cccc2F)nc2c(Br)cccc21 [compound 54, 4-bromo-1-(2,6-difluorobenzyl)-2-(2,6-difluorophenyl)benzimidazole]
EC50 (WT virus (NL4-3); Human immunodeficiency virus 1, NL43, CEM-SS, Table 7, concentration reducing cell killing or virus production by 50%, HIV-1 WT): 370 nM | EC50 (WT virus (NL4-3); Human immunodeficiency virus 1, NL43, CEM-SS, Table 11, CEMSS/NL4-3, NRVC = reduction in viral CPE not seen (footnote)): 370 nM | EC50 (NL4-3 (WT); Human immunodeficiency virus 1, NL43, MT4, Table 10 (values in µM), isolate NL4-3 (WT)): 0.5 µM | EC50 (HIV-1 variant Y181C; [7]): 10.7 µM | EC50 (HIV-1 variant K103N; [7]): > 20 µM | EC50 (HIV-1 variant L100I; Human immunodeficiency virus 1, MT4, Table 10 (values in µM), isolate L1001): 0.5 µM | EC50 (HIV-1 variant K101E; Human immunodeficiency virus 1, MT4, Table 10 (values in µM), isolate K101E): > 20 µM | EC50 (HIV-1 variant V108I; Human immunodeficiency virus 1, MT4, Table 10 (values in µM), isolate V108l): 4.2 µM | EC50 (HIV-1 variant Y188C; Human immunodeficiency virus 1, MT4, Table 10 (values in µM), isolate Y188C): 3.7 µM | inhibition at 1 µM (HIV-1 WT RT; Table 6, average of two experiments done in triplicates, read-out: %Inhibn (1µM)): 78% | IC50 (HIV-1 WT RT; Table 7, HIV-1 WT RT): 1610 nM | inhibition at 1 µM (HIV-1 WT RT; Table 7, read-out: %inhibn (1µM)): 78% | IC50 (HIV-1 WT RT; Table 11, WT RT): 1610 nM

CN(C)c1cccc2c1nc(-c1c(F)cccc1F)n2Cc1c(F)cccc1F [compound 59, 1-(2,6-difluorobenzyl)-2-(2,6-difluorophenyl)-4-N,N dimethylaminobenzimidazole]
EC50 (WT virus (NL4-3); [1]): 2370 nM | EC50 (WT virus (NL4-3); [2]): 2370 nM | EC50 (NL4-3 (WT); [3]): 2.88 µM | EC50 (HIV-1 variant Y181C; [4]): > 100 µM | EC50 (HIV-1 variant K103N; [4]): > 100 µM | EC50 (HIV-1 variant L100I; [5]): 31.8 µM | IC50 (HIV-1 WT RT; Table 7, HIV-1 WT RT): 40000 nM | %inhibn (1µM) (HIV-1 WT RT; Table 7): 77% | IC50 (HIV-1 WT RT; Table 11, WT RT): 40000 nM

CC(C)(O)c1cccc2c1nc(-c1c(F)cccc1F)n2Cc1c(F)cccc1F [compound 65, 1-(2,6-Difluorobenzyl)-2-(2,6-difluorophenyl)-4-benzimidazoyl-2-propanol]
EC50 (WT virus (NL4-3); [2]): 634000 nM

[N-]=[N+]=NCc1cccc2c1nc(-c1c(F)cccc1F)n2Cc1c(F)cccc1F [compound 70, 1-(2,6-difluorobenzyl)-2-(2,6-difluorophenyl)benzimidazol-4-yl-azidomethyl]
EC50 (WT virus (NL4-3); [2]): 45 nM | EC50 (NL4-3 (WT); Table 10 (values in µM), isolate NL4-3 (WT), listed as CH2-N3, read-out: EC50): 0.045 µM and 0.06 µM | EC50 (HIV-1 variant Y181C; [4]): 0.82 µM | EC50 (HIV-1 variant K103N; [4]): 1.48 µM | EC50 (HIV-1 variant K101E; Table 10 (values in µM), isolate K101E, read-out: EC50): 0.6 µM | EC50 (HIV-1 variant V108I; Table 10 (values in µM), isolate V108l, read-out: EC50): 0.026 µM | EC50 (HIV-1 variant Y188C; Table 10 (values in µM), isolate Y188C, read-out: EC50): 0.22 µM

CC(=O)NCc1cccc2c1nc(-c1c(F)cccc1F)n2Cc1c(F)cccc1F [compound 72]
EC50 (µM) (WT virus (NL4-3); [2]): NRVC

CC(=O)N(C)Cc1cccc2c1nc(-c1c(F)cccc1F)n2Cc1c(F)cccc1F [compound 73, 1-(2,6-Difluorobenzyl)-2-(2,6-difluorophenyl)-4-(N-acetyl-N-methyl)-aminomethylbenzimidazole]
EC50 (WT virus (NL4-3); [2]): 580 nM
